Measurements from PMC8373216, “Development and Preclinical Evaluation of New Inhaled Lipoglycopeptides for the Treatment of Persistent Pulmonary Methicillin-Resistant Staphylococcus aureus Infections” (Antimicrobial Agents and Chemotherapy, 2021).
Converted amounts (≈) assume the structure as drawn. Read-outs that look alike come from different tables or passages of the source.

Columns and labels:
[1] = tested on: K. pneumoniae; assay: Expanded panel broth microdilution MIC; format: cell-based
[2] = tested on: P. mirabilis; assay: Expanded panel broth microdilution MIC; format: cell-based; settings: Proteus mirabilis, ATCC43071
[3] = tested on: Haemophilus influenzae; assay: Expanded panel broth microdilution MIC; format: cell-based
[4] = tested on: C. freundii; assay: Expanded panel broth microdilution MIC; format: cell-based; settings: Citrobacter freundii
[5] = tested on: Enterococcus faecium; assay: Expanded panel broth microdilution MIC/MBC; format: cell-based; settings: for MIC: Enterococcus faecium
[6] = tested on: H. parainfluenzae; assay: Expanded panel broth microdilution MIC; format: cell-based; settings: Haemophilus parainfluenzae
[7] = tested on: Staphylococcus lugdunensis; assay: Expanded panel broth microdilution MIC; format: cell-based
[8] = tested on: Burkholderia cepacia; assay: Expanded panel broth microdilution MIC; format: cell-based
[9] = tested on: Staphylococcus haemolyticus; assay: Expanded panel broth microdilution MIC; format: cell-based
[10] = tested on: Staphylococcus epidermidis; assay: Expanded panel broth microdilution MIC/MBC; format: cell-based; settings: for MIC: Staphylococcus epidermidis
[11] = tested on: Pseudomonas aeruginosa; assay: Expanded panel broth microdilution MIC; format: cell-based
[12] = tested on: Moraxella catarrhalis; assay: Expanded panel broth microdilution MIC; format: cell-based
[13] = tested on: E. coli; assay: Expanded panel broth microdilution MIC; format: cell-based; settings: Escherichia coli
[14] = tested on: E. cloacae; assay: Expanded panel broth microdilution MIC; format: cell-based; settings: Enterobacter cloacae
[15] = tested on: Clostridioides difficile; assay: Expanded panel broth microdilution MIC; format: cell-based
[16] = tested on: P. vulgaris; assay: Expanded panel broth microdilution MIC; format: cell-based; settings: Proteus vulgaris
[17] = tested on: S. marcescens; assay: Expanded panel broth microdilution MIC; format: cell-based; settings: Serratia marcescens, ATCC43862
[18] = tested on: Eggerthella lenta; assay: Expanded panel broth microdilution MIC; format: cell-based
[19] = tested on: MRSA (ATCC BAA 1556; USA300); assay: Acute pulmonary MRSA infection in neutropenic rats, nebulized nose-only inhalation; format: in vivo, Staphylococcus aureus; settings: inhaled at 24 and 32 h postinfection, lungs at 48 h, 49.8 mg/kg delivered
Procedure: Rats were rendered neutropenic with intraperitoneal (i.p.) cyclophosphamide on day −4 (150 mg/kg) and day −1 (100 mg/kg) relative to the challenge. On day 0 at 0 h, rats were challenged with MRSA via intranasal instillation at a target titer of 8.0 to 8.3 log10 CFU. At 24 and 32 h postchallenge, rats were loaded into a 12-port inhalation dosing tower, where they received nebulized drug or vehicle control treatments by nose-only inhalation. Animals were euthanized at 48 h postinfection for enumeration of lung MRSA titer. MRSA lung titer of test article treatments versus control is plotted for three separate experiments. […] Statistics are based on the Kolmogorov-Smirnov test for drug treatment versus control (RV94, P = 0.01). LOD = 2.1 log10 CFU/lungset.
Male Sprague Dawley rats (Envigo, Indianapolis, IN) weighing between 225 and 250 g were used in these studies. Rats were housed and acclimated to the study facility as described in the PK methods section. Rats were rendered neutropenic through a series of intraperitoneal cyclophosphamide (Sigma-Aldrich) injections on day −4 (150 mg/kg) and day −1 (100 mg/kg) relative to the challenge. On day 0 at 0 h, rats were challenged with MRSA ATCC BAA 1556 via intranasal instillation at a target titer of 8.0 to 8.3 log10 CFU using optical density and back-counting inoculum CFU. To prepare the inoculum, a frozen aliquot of the organism stored at −80°C was thawed, transferred into TSB, and incubated at 37°C while shaking for 16 h. Cultures were then centrifuged at 2,000 × g for 5 min, and the resulting pellet was resuspended in PBS and equilibrated. For the challenge procedure, rats were first anesthetized through use of 2 to 5% isoflurane in 100% oxygen, then restrained with a scruff grip and a total of 200 μl of inoculum was quickly introduced to one nare. The rat was held in a vertical position until the challenge was fully inhaled. Rats were monitored following challenge to ensure that normal respiration was achieved and then returned to their cage. […] At necropsy, whole lungs were aseptically removed and lung weights were recorded. […]

[20] = tested on: Peptostreptococcus anaerobius; assay: Expanded panel broth microdilution MIC; format: cell-based
[21] = tested on: Acinetobacter baumannii; assay: Expanded panel broth microdilution MIC; format: cell-based

For `CN[C@H](CC(C)C)C(=O)N[C@H]1C(=O)N[C@@H](CC(N)=O)C(=O)N[C@H]2C(=O)N[C@H]3C(=O)N[C@H](C(=O)N[C@H](C(=O)O)c4cc(O)cc(O)c4-c4cc3ccc4O)[C@H](O)c3ccc(c(Cl)c3)Oc3cc2cc(c3O[C@@H]2O[C@H](CO)[C@@H](O)[C@H](O)[C@H]2O[C@H]2C[C@](C)(N)[C@H](O)[C@H](C)O2)Oc2ccc(cc2Cl)[C@H]1O` [Vancomycin, vancomycin], the MIC ([1]; K. pneumoniae MMX 4679, KPC-2) was > 64 µg/mL, the MIC ([1]; Klebsiella pneumoniae) was > 64 µg/mL and the MIC [2] was > 64 µg/mL. The MIC [3] was 64 µg/mL (≈ 44.2 µM), the MIC ([3]; ATCC49247) was > 64 µg/mL and the MIC [4] was > 64 µg/mL. The “MIC:MBC” value ([5]; E. faecium VanB VRE) was >2, the MIC ([5]; E. faecium MMX 4204, VSE) was 0.5 µg/mL (≈ 0.345 µM) and the MIC ([5]; E. faecium VSE, 1 isolate) was 0.5 µg/mL (≈ 0.345 µM). For the same compound, the MIC ([5]; VRE, E. faecium MMX 173, VanB VRE) was 64 µg/mL (≈ 44.2 µM), the MIC ([5]; VRE, E. faecium MMX 851, VanA VRE) was 128 µg/mL (≈ 88.3 µM) and the MIC ([5]; VRE, E. faecium VanA VRE, 1 isolate) was 128 µg/mL (≈ 88.3 µM). It also gave an MIC ([5]; VRE, E. faecium VanB VRE, 1 isolate) of 64 µg/mL (≈ 44.2 µM), an MIC [6] of 64 µg/mL (≈ 44.2 µM) and an MIC ([7]; S. lugdunensis, 1 isolate) of 0.25 µg/mL (≈ 0.173 µM). For the same compound, the MIC ([7]; Staphylococcus lugdunensis) was 0.25 µg/mL (≈ 0.173 µM), the MIC [8] was > 64 µg/mL and the MIC [9] was 1 µg/mL (≈ 0.69 µM). The MIC ([9]; ATCC29970) was 1 µg/mL (≈ 0.69 µM), the “MIC:MBC” value ([10]; S. epidermidis MRSE, MBC on one organism) was 1 and the MIC ([10]; ATCC49134, S. epidermidis ATCC 49134, MSSE) was 0.5 µg/mL (≈ 0.345 µM). For the same compound, the MIC ([10]; MRSE, S. epidermidis MMX 762, MRSE) was 1 µg/mL (≈ 0.69 µM), the MIC ([10]; MRSE, S. epidermidis MMX 5145, MRSE) was 1 µg/mL (≈ 0.69 µM) and the MIC ([10]; MRSE, read-out: MIC (median), S. epidermidis MRSE, 2 isolates) was 1 µg/mL (≈ 0.69 µM). For the same compound, the MIC ([10]; S. epidermidis MSSE, 1 isolate) was 0.5 µg/mL (≈ 0.345 µM), the MIC [11] was > 64 µg/mL and the MIC ([11]; ATCC27853) was > 64 µg/mL. For the same compound, the MIC [12] was 16 µg/mL (≈ 11 µM), the MIC ([12]; ATCC8176) was 32 µg/mL (≈ 22.1 µM) and the MIC ([12]; ATCC8193) was 64 µg/mL (≈ 44.2 µM). For the same compound, the MIC [13] was > 64 µg/mL, the MIC ([13]; ATCC25922) was > 64 µg/mL and the MIC ([14]; ATCC49141) was > 64 µg/mL. The MIC ([14]; ATCCBAA1143) was > 64 µg/mL, the MIC ([15]; ATCCBAA1805, C. difficile ATCC BAA-1805, ribo 027) was 0.5 µg/mL (≈ 0.345 µM) and the MIC ([15]; ATCCBAA1870, C. difficile ATCC BAA-1870, NAP1;ribo 027) was 1 µg/mL (≈ 0.69 µM). For the same compound, the MIC ([15]; C. difficile ATTC 700057, toxAB-) was 0.25 µg/mL (≈ 0.173 µM), the MIC ([15]; C. difficile NAP1;ribo 027, 1 isolate) was 1 µg/mL (≈ 0.69 µM) and the MIC ([15]; C. difficile ribo 027, 1 isolate) was 0.5 µg/mL (≈ 0.345 µM). For the same compound, the MIC ([15]; C. difficile toxAB-, 1 isolate) was 0.25 µg/mL (≈ 0.173 µM), the MIC [16] was > 64 µg/mL and the MIC [17] was > 64 µg/mL. For the same compound, the MIC [18] was 0.5 µg/mL (≈ 0.345 µM), the MIC ([18]; ATCC43055) was 0.5 µg/mL (≈ 0.345 µM) and the “Average increase in lung MRSA titer versus inhaled vehicle control” value [19] was 0.1 log10 CFU. The MIC [20] was 0.12 µg/mL (≈ 0.0828 µM), the MIC ([20]; ATCC27337) was 0.12 µg/mL (≈ 0.0828 µM) and the MIC ([21]; A. baumannii MMX 6974, colistinR) was > 64 µg/mL. For the same compound, the MIC ([21]; Acinetobacter baumannii) was > 64 µg/mL and the MIC ([21]; Acinetobacter baumannii, NCTC13304) was > 64 µg/mL.
